The assay relates to BDF1 mice, B16 melanoma ip, median survival T/C. The experiment in a line: NCI In Vivo Anticancer Drug Screen. Data for tumor model B16 Melanoma (intraperitoneal) in B6D2F1 (BDF1) mice. As to conditions: endpoint: median survival time, higher = longer survival. In short, it runs like this:
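Each result divides a survival or tumor-size measurement in the compound-treated group by the same measurement in the vehicle group.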

[1] abbreviates: dose: 2.5 mg/kg/injection, schedule: Q01DX009 (ip), vehicle: saline.
[2] abbreviates: dose: 25.0 mg/kg/injection, schedule: Q01DX009 (ip), vehicle: Klucel (hydroxypropylcellulose) (HPC).
Setting [3] is: dose: 50.0 mg/kg/injection, schedule: Q01DX009 (ip), vehicle: Klucel (hydroxypropylcellulose) (HPC).
The mark [4] stands for this setting: dose: 100.0 mg/kg/injection, schedule: Q01DX009 (ip), vehicle: Klucel (hydroxypropylcellulose) (HPC).
The mark [5] stands for this setting: dose: 100.0 mg/kg/injection, schedule: Q01DX009 (ip), vehicle: saline with Tween-80.
[6] abbreviates: dose: 200.0 mg/kg/injection, schedule: Q01DX009 (ip), vehicle: saline with Tween-80.
The mark [7] stands for this setting: dose: 400.0 mg/kg/injection, schedule: Q01DX009 (ip), vehicle: saline with Tween-80.
Where [8] appears, read: dose: 200.0 mg/kg/injection, schedule: Q01DX009 (ip), vehicle: Klucel (hydroxypropylcellulose) (HPC).
The mark [9] stands for this setting: dose: 400.0 mg/kg/injection, schedule: Q01DX009 (ip), vehicle: Klucel (hydroxypropylcellulose) (HPC).
[10] abbreviates: dose: 50.0 mg/kg/injection, schedule: Q01DX009 (ip), vehicle: saline with Tween-80.
Where [11] appears, read: dose: 2.0 mg/kg/injection, schedule: Q01DX009 (ip), vehicle: saline.
The mark [12] stands for this setting: dose: 4.0 mg/kg/injection, schedule: Q01DX009 (ip), vehicle: saline.
Where [13] appears, read: dose: 12.5 mg/kg/injection, schedule: Q01DX009 (ip), vehicle: Klucel (hydroxypropylcellulose) (HPC).
Where [14] appears, read: dose: 15.0 mg/kg/injection, schedule: Q01DX009 (ip), vehicle: saline with Tween-80.

Values joined by “and” are separate entries in the source; they are usually repeats but may differ in a detail not shown here. Identical values can stand only once. Inconclusive results and toxic doses are left out.

As for `CC(N)Cc1ccc(O)cc1` (stereo unspecified), the T/C was 102 % of control (dose: 12.5 mg/kg/injection, schedule: Q01DX009 (ip), vehicle: saline); 110 % of control (dose: 25.0 mg/kg/injection, schedule: Q01DX009 (ip), vehicle: saline); 100 % of control (dose: 50.0 mg/kg/injection, schedule: Q01DX009 (ip), vehicle: saline); 105 % of control (dose: 100.0 mg/kg/injection, schedule: Q01DX009 (ip), vehicle: saline); 100 % of control (dose: 200.0 mg/kg/injection, schedule: Q01DX009 (ip), vehicle: saline).

With `CC(O)C(=O)[O][Hg][c]1ccccc1` (stereo unspecified), the T/C (dose: 2.5 mg/kg/injection, schedule: Q01DX009 (ip), vehicle: saline with Tween-80) was 102 % of control and the T/C (dose: 5.0 mg/kg/injection, schedule: Q01DX009 (ip), vehicle: saline with Tween-80) is 102 % of control.

`CCCCCC(O)C1C(=O)OC(C)C(O)/C=C/C=C/C=C/C=C\C=C(\C)C(O)CC(O)CC(O)CC(O)CC(O)CC(O)CC1O` (stereo unspecified): the T/C by setting is: under setting [1], 120 % of control; (dose: 5.0 mg/kg/injection, schedule: Q01DX009 (ip), vehicle: saline) 97 % of control; (dose: 10.0 mg/kg/injection, schedule: Q01DX009 (ip), vehicle: saline) 88 % of control.

As for `CCCCCCCCCCCCCCCC[N+](C)(C)c1nc(Cl)nc(Cl)n1`, the T/C (dose: 2.0 mg/kg/injection, schedule: Q01DX009 (ip), vehicle: saline with Tween-80) is 97 % of control; the T/C (dose: 4.0 mg/kg/injection, schedule: Q01DX009 (ip), vehicle: saline with Tween-80) is 100 % of control; the T/C (dose: 8.0 mg/kg/injection, schedule: Q01DX009 (ip), vehicle: saline with Tween-80) is 95 % of control.

For the molecule `Cc1c(Cl)cccc1NS(=O)(=O)c1ccc(Cl)cc1`, the T/C by setting is: under setting [2], 106 % of control; under setting [3], 97 % of control; under setting [4], 99 % of control.

`ClCCN=Cc1ccc(Cl)cc1`: the T/C is, setting by setting: under setting [5], 98 % of control; under setting [6], 95 % of control; under setting [7], 93 % of control.

Take `Cc1cc(Cl)ccc1NC(=O)c1ccccc1Cl`: the T/C reads like this: under setting [4], 114 % of control; under setting [8], 122 % of control; under setting [9], 110 % of control.

On to `Cc1cc2c3ccc(C)[n+](C)c3ccc2n1C`, for which the T/C (dose: 0.08 mg/kg/injection, schedule: Q01DX009 (ip), vehicle: saline) is 102 % of control; the T/C (dose: 0.15 mg/kg/injection, schedule: Q01DX009 (ip), vehicle: saline) was 92 % of control; the T/C (dose: 0.3 mg/kg/injection, schedule: Q01DX009 (ip), vehicle: saline) was 97 % of control; the T/C (dose: 1.25 mg/kg/injection, schedule: Q01DX009 (ip), vehicle: saline) was 100 % of control; the T/C under setting [1] is 94 % of control.

Take `Nc1cc2nc3ccccc3sc-2cc1=O`: the T/C under setting [10] was 93 % of control, the T/C under setting [5] is 98 % of control and the T/C under setting [6] was 94 % of control.

On to `CCCCC(SC(CC)(C(N)=O)c1ccccc1)C(=O)O` (stereo unspecified), for which the T/C by setting is: under setting [10], 100 % of control; under setting [5], 99 % of control; under setting [6], 92 % of control; under setting [7], 90 % of control.

As for `O=C(O)c1[nH]c(=O)[nH]c(=O)c1F`, the T/C is, setting by setting: under setting [11], 92 % of control; under setting [12], 95 % of control.

On to `CCCCCCCCCCCCCCCC(=O)N(CCC#N)C(C)(C)CCC(C)(C)N(CCC#N)C(=O)CCCCCCCCCCCCCCC`, for which the T/C is 90 % of control under setting [2], 98 % of control under setting [3] and 91 % of control under setting [4].

For `Brc1cc(Br)cc(-c2nnc(-c3cccc4ccccc34)o2)c1`, the T/C under setting [8] is 94 % of control.

`CC(=O)C(N=Nc1ccccc1)C(C)=O`: the T/C runs as follows: under setting [2], 100 % of control; under setting [3], 113 % of control; under setting [4], 113 % of control.

For `O=C(O)C(Cc1cc(I)c(O)c(I)c1)c1ccccc1` (stereo unspecified), the T/C by setting is: under setting [3], 100 % of control; under setting [4], 109 % of control; under setting [8], 100 % of control.

For `Cc1ccc(S(=O)(=O)N/N=C/C(=O)O)cc1`, the T/C (dose: 0.78 mg/kg/injection, schedule: Q01DX009 (ip), vehicle: saline with Tween-80) is 108 % of control; the T/C (dose: 1.56 mg/kg/injection, schedule: Q01DX009 (ip), vehicle: saline with Tween-80) was 110 % of control; the T/C (dose: 3.12 mg/kg/injection, schedule: Q01DX009 (ip), vehicle: saline with Tween-80) is 104 % of control; the T/C (dose: 6.25 mg/kg/injection, schedule: Q01DX009 (ip), vehicle: Klucel (hydroxypropylcellulose) (HPC)) was 103 % of control and 111 % of control; the T/C (dose: 6.25 mg/kg/injection, schedule: Q01DX009 (ip), vehicle: saline with Tween-80) is 104 % of control and 112 % of control; the T/C under setting [13] was 121 % of control. Moreover, the T/C was 111 % of control (dose: 12.5 mg/kg/injection, schedule: Q01DX009 (ip), vehicle: saline with Tween-80); 112 % of control under setting [14]; 118 % of control (dose: 17.5 mg/kg/injection, schedule: Q01DX009 (ip), vehicle: Klucel (hydroxypropylcellulose) (HPC)); 103 % of control (dose: 23.0 mg/kg/injection, schedule: Q01DX009 (ip), vehicle: saline with Tween-80); 100 % of control (dose: 53.0 mg/kg/injection, schedule: Q01DX009 (ip), vehicle: saline with Tween-80); 151 % of control (dose: 70.0 mg/kg/injection, schedule: Q01DX009 (ip), vehicle: Klucel (hydroxypropylcellulose) (HPC)). Also, the T/C (dose: 70.0 mg/kg/injection, schedule: Q01DX009 (ip), vehicle: saline with Tween-80) is 115 % of control.

Consider `Cn1c(=O)c2[nH]c(Cc3ccsc3)nc2n(C)c1=O`, for which the T/C by setting is: under setting [13], 104 % of control; under setting [2], 107 % of control; under setting [3], 96 % of control.

As for `C=C(C)C1CCC2(C=O)CCC3(C)C(CCC4C5(C)CCC(O)C(C)(C)C5CCC43C)C12` (stereo unspecified), the T/C is 94 % of control (dose: 18.75 mg/kg/injection, schedule: Q01DX009 (ip), vehicle: Klucel (hydroxypropylcellulose) (HPC)) and 97 % of control (dose: 75.0 mg/kg/injection, schedule: Q01DX009 (ip), vehicle: Klucel (hydroxypropylcellulose) (HPC)).

As to `CC(=O)c1cccc(NC(=O)Nc2ccccc2)c1`, the T/C under setting [4] is 96 % of control, the T/C under setting [8] is 91 % of control and the T/C under setting [9] is 96 % of control.

With `Cc1ccccc1N(CC1CO1)CC1CO1` (stereo unspecified), the T/C under setting [10] is 152 % of control and the T/C under setting [5] was 180 % of control.

With `Nc1ccc2nc3ccc(N)cc3[n+](-c3ccccc3)c2c1`, the T/C by setting is: (dose: 3.75 mg/kg/injection, schedule: Q01DX009 (ip), vehicle: saline with Tween-80) 97 % of control; (dose: 7.5 mg/kg/injection, schedule: Q01DX009 (ip), vehicle: saline with Tween-80) 102 % of control; (dose: 10.0 mg/kg/injection, schedule: Q04DX003 (ip), vehicle: saline with Tween-80) 100 % of control; under setting [14], 102 % of control; (dose: 20.0 mg/kg/injection, schedule: Q04DX003 (ip), vehicle: saline with Tween-80) 107 % of control; (dose: 30.0 mg/kg/injection, schedule: Q01DX009 (ip), vehicle: saline with Tween-80) 118 % of control. For the same molecule, under “dose: 40.0 mg/kg/injection, schedule: Q04DX003 (ip), vehicle: saline with Tween-80”, the T/C was 100 % of control.

For the molecule `COc1c([N+](=O)[O-])cc(C(=O)O)cc1[N+](=O)[O-]`, the T/C was 92 % of control under setting [4] and 92 % of control under setting [8].

On to `COC(=O)C1=C(N)CCc2ccccc21`, for which the T/C is 90 % of control under setting [5] and 95 % of control under setting [6].

`COC1C(O)C(C)OC(OC2CC(O)C3(C)C(CCC4C3CCC3(C)C(C5=CC(=O)OC5)CCC43O)C2)C1O` (stereo unspecified) (tested in a mixture with another compound): the T/C was 99 % of control under setting [11]; 97 % of control under setting [12]; 97 % of control (dose: 8.0 mg/kg/injection, schedule: Q01DX009 (ip), vehicle: saline); 94 % of control (dose: 16.0 mg/kg/injection, schedule: Q01DX009 (ip), vehicle: saline); 94 % of control (dose: 32.0 mg/kg/injection, schedule: Q01DX009 (ip), vehicle: saline); 88 % of control (dose: 64.0 mg/kg/injection, schedule: Q01DX009 (ip), vehicle: saline).

The record behind these values is PubChem BioAssay AID192 (DTP/NCI, 2004).
